Test results as given in BigSolDB 2.1.

COc1ccccc1N1CCN(CC(O)COc2cccc3ccccc23)CC1 (stereo not given)
solubility (mole fraction)
Conditions | 288.15 K | 293.15 K | 298.15 K | 303.15 K | 308.15 K | 313.15 K | 318.15 K | 323.15 K | 328.15 K
in DMSO | – | 0.0283 | 0.0323 | 0.0367 | 0.0416 | 0.0468 | 0.0527 | 0.059 | 0.066
in ethanol | 0.00142 | 0.00163 | 0.00189 | 0.00216 | 0.00244 | 0.00277 | 0.00314 | 0.00355 | 0.00397
in isopropanol | 0.000714 | 0.000827 | 0.000959 | 0.00111 | 0.00127 | 0.00145 | 0.00165 | 0.00186 | 0.00213
in water | 2.07e-06 | 2.69e-06 | 3.46e-06 | 4.43e-06 | 5.65e-06 | 7.05e-06 | 8.85e-06 | 1.09e-05 | 1.37e-05
